Values quoted from earlier work in patent US20200330378A1, “TASTE-ENHANCED C[…] EMULSION SYRUP COMPOSITIONS” (ICDPHARMA LTD., priority 2018, published 2020).

Experiments:
[1] = system: human lung tumors implanted into rats and mice
[2] = subjects given THC
[3] = patients with insomnia; 160 mg dose of CBD compared to placebo
[4] = 75-300 mg of CBD taken daily

Row | Structure (SMILES) | reduction in tumor mass and volume ([1]; human lung tumors implanted into rats and mice) | reduction of cancerous lesions in the lungs ([1]; rats and mice) | amount of time to fall asleep [2] | length of sleep [3] | symptoms of REM sleep behavior disorder [4]
1 | CCCCCc1cc(O)c2c(c1)OC(C)(C)[C@@H]1CCC(C)=C[C@@H]21 [THC, tetrahydrocannabinol] | ≤ 50% | around 60% | significant decrease |  | 
2 | C=C(C)[C@@H]1CCC(C)=C[C@H]1c1c(O)cc(CCCCC)cc1O [CBD, cannabidiol] |  |  |  | increased | reduce or eliminate entirely
